{"source": "paper PMC6472337", "about": "“L amino acid transporter structure and molecular bases for the asymmetry of substrate interaction” (Nature Communications, 2019)", "key": {"BasC wild-type": {"system": "BasC wild-type", "assay": "[3H]L-alanine transport (influx, efflux, exchange) in BasC proteoliposomes", "format": "biochemical, Carnobacterium sp AT7", "settings": "for V: 4 mM L-alanine inside PLs, without Nb74", "description": "(§1) BasC-GFP protein was reconstituted in E. coli polar lipids (Sigma-Aldrich, Madrid, Spain), as previously described. Lipids were dried under N2 and suspended in reconstitution buffer (20 mM Tris-Base, 150 mM NaCl, pH 7.4). The suspension was sonicated to clarity and purified BasC protein was added to reach the desired protein to lipid ratio of 1:100 (w:w). To destabilize the liposomes, 1.25% ß-D-octylglucoside was added and the mixture was incubated on ice with occasional agitation for 5 min. DDM and ß-D-octylglucoside were removed by dialysis for 40 h at 4 °C against 100 volumes of dialysis buffer. Proteoliposome (PL) suspensions were frozen in liquid N2 and stored at −80 °C until use.\n(§2) For uptake experiments, the desired intraliposomal amino acid concentration was added to the PL suspension, which was then subjected to three freeze/thaw cycles. The extraliposomal amino acid content was then removed by ultracentrifugation (100,000 × g for 1 h at 4 °C) and PLs were resuspended to one-third of the initial volume with reconstitution buffer. Amino acid uptake assays were initiated after mixing 10 μl of cold PLs with 180 μl of transport buffer (20 mM Tris-Base, 150 mM NaCl, pH 7.4 plus 0.5–1 µCi/180 µl of radiolabeled L-amino acid (Perkin Elmer, Waltham, MA)) supplemented with the unlabeled amino acid to the desired concentration. This mixture was then incubated at room temperature for the indicated periods. […] Filters were then washed twice with 2 ml of stop buffer and dried, and the trapped radioactivity was counted. Transport measured in PLs containing no amino acid was subtracted from each data point to calculate the net exchange. […] BasC protein in PLs was determined by Coomassie blue staining in SDS-PAGE gels compared with known amounts of BasC in DDM micelles, determined by BCA assay (Pierce, Rockford, IL) and loaded in the same gel."}, "BasC K154A mutant [1]": {"biological_target": "BasC K154A mutant", "assay": "Thermostability-based L-alanine binding assay, K154A", "design": "species or system Carnobacterium sp AT7", "settings": "for Kd K154A binding curve, normalized signal: n=1-3", "description": "GFP-fused BasC proteins purified in DM were incubated for 10 min at 4–60 °C (Y236F and K154A mutants) or 4–70 °C (wild-type). In total, 200 µl of 2 mg ml^−1 protein was used for each temperature point. Protein was then centrifuged at 186,000 × g for 30 min. […] Fractions (200 µl) were collected and measured for GFP fluorescence. The peak heights were normalized to those of samples incubated at 4 °C and were fit to the Hill equation using the GraphPad Prism 4 program (GraphPad Software Inc., San Diego, CA). Melting temperatures (Tm) were determined by fitting the curves to a sigmoidal dose-response equation, as previously described.\nBasC-GFP proteins were then incubated at the calculated Tm for 10 min and centrifuged at 186,000 × g for 30 min. […] Binding affinities were determined by fitting the curves to a sigmoidal dose-response equation."}, "BasC K154A mutant [2]": {"system": "BasC K154A mutant", "assay": "[3H]L-alanine transport in BasC K154A proteoliposomes", "format": "biochemical, Carnobacterium sp AT7", "design": "V/[L-Ala]: unit not given here", "settings": "for V/[L-Ala]: Eadie-Hofstee, n=1-3 and mean", "description": "BasC was overexpressed as a C-terminal fusion with GFP in E. coli BL21 Star (DE3) cells grown in LB media. Single point mutations (Supplementary Table 2) were introduced using the QuikChange site-directed mutagenesis kit (Stratagene, San Diego, CA). All mutations were verified by sequencing. Expression was induced with 0.1 mM isopropyl-ß-D-thiogalactopyranoside at 37 °C for 22 h. Cells were harvested at 5000 × g for 15 min at 4 °C and stored at −80 °C until use. Cell pellets were thawed and resuspended in 20 mM Tris-Base, 150 mM NaCl, pH 7.4. Cells were pelleted again at 5000 × g for 15 min at 4 °C, resuspended in lysis buffer (20 mM Tris-Base, 350 mM NaCl, pH 7.4, 1 mM pefabloc and complete mini protease inhibitor cocktail) (Roche, Basel Switzerland) and then broken using a Cell Disruptor (four cycles at 20,000 psi; Constant Systems Ltd., Daventry, UK). Cell debris was removed by centrifugation (15,000 × g for 1 h at 4 °C), and the supernatant was subjected to ultracentrifugation (200,000 × g for 2 h at 4 °C). The membrane pellet was resuspended in 20 mM Tris-Base, 150 mM NaCl, pH 7.4 and 10% glycerol at a protein concentration of 8–12 mg ml^−1, and then frozen in liquid nitrogen and stored at −80 °C until use.\nas §1, §2"}}, "note": "Several values for one entry are separate records, joined by “and”; a condition that tells them apart may be missing. Identical values can stand only once. Like-named read-outs stand apart in the source and are kept apart here."}
{"smiles": "C[C@H](N)C(=O)O", "note": "[L-alanine]", "values": [{"measurement": "saturation of the transporter at 4 mM intraliposomal L-alanine", "setting": "BasC wild-type; BasC wild-type", "value": "about 80%"}, {"measurement": "V/[L-Ala]", "setting": "BasC wild-type; Eadie-Hofstee, L-alanine 800 μM, with 5 µM Nb74, n=1-3 and mean", "value": "0.010 pmol µg prot-1 s-1µM-1"}, {"measurement": "Km", "setting": "BasC wild-type; L-alanine concentrations up to 800 µM, absence of Nb74, read-out: extracellular Km", "value": "65 ± 12", "unit": "µM"}, {"measurement": "V", "setting": "BasC wild-type; external [3H]L-alanine 100 μM, n=1-3 and mean", "value": "5.346 pmol L-Ala μg BasC-1 s-1 and 5.124 pmol L-Ala μg BasC-1 s-1 and 4.879 pmol L-Ala μg BasC-1 s-1"}, {"measurement": "V", "setting": "BasC wild-type; external [3H]L-alanine 200 μM, n=1-3 and mean", "value": "7.346 pmol L-Ala μg BasC-1 s-1 and 6.582 pmol L-Ala μg BasC-1 s-1 and 6.938 pmol L-Ala μg BasC-1 s-1"}, {"measurement": "V", "setting": "BasC wild-type; external [3H]L-alanine 400 μM, n=1-3 and mean", "value": "7.143 pmol L-Ala μg BasC-1 s-1 and 6.357 pmol L-Ala μg BasC-1 s-1 and 9.257 pmol L-Ala μg BasC-1 s-1"}, {"measurement": "Km", "setting": "BasC wild-type; extracellular side, wild-type, read-out: Km (o)", "value": "53.7 ± 3.97", "unit": "µM"}, {"measurement": "Km", "setting": "BasC wild-type; full range kinetics inhibited by 5 µM Nb74, read-out: extracellular Km", "value": "46 ± 9", "unit": "µM"}, {"measurement": "Km", "setting": "BasC wild-type; intracellular side, wild-type, read-out: Km (i)", "value": "2220 ± 150", "unit": "µM"}, {"measurement": "Vmax", "setting": "BasC wild-type; wild-type", "value": "6.37 ± 0.70 pmols L-alanine µg protein^−1 s^−1"}, {"measurement": "Kd", "setting": "BasC K154A mutant [1]; K154A, incubated at Tm, L-alanine 0–200 mM, read-out: KD (apparent, thermostability-based)", "value": "61.4 ± 7.3", "unit": "mM"}, {"measurement": "Kd K154A binding curve, normalized signal", "setting": "BasC K154A mutant [1]; [L-Alanine] 6.25 mM", "value": "14.092 and 14.380 and 15.376"}, {"measurement": "Kd K154A binding curve, normalized signal", "setting": "BasC K154A mutant [1]; [L-Alanine] 12.50 mM", "value": "15.845 and 21.520 and 16.121"}, {"measurement": "Kd K154A binding curve, normalized signal", "setting": "BasC K154A mutant [1]; [L-Alanine] 25 mM", "value": "35.951 and 29.574 and 35.797"}, {"measurement": "Kd K154A binding curve, normalized signal", "setting": "BasC K154A mutant [1]; [L-Alanine] 50 mM", "value": "50.837 and 57.901 and 51.971"}, {"measurement": "Kd K154A binding curve, normalized signal", "setting": "BasC K154A mutant [1]; [L-Alanine] 100 mM", "value": "91.898 and 90.173 and 89.225"}, {"measurement": "Kd K154A binding curve, normalized signal", "setting": "BasC K154A mutant [1]; [L-Alanine] 150 mM", "value": "95.225 and 92.554 and 88.658"}, {"measurement": "Kd K154A binding curve, normalized signal", "setting": "BasC K154A mutant [1]; [L-Alanine] 200 mM", "value": 100.000}, {"measurement": "Kd", "setting": "BasC K154A mutant [1]; individual experiments n=1, n=2, n=3, read-out: Apparent Kd K154A", "value": "55.6 mM and 58.9 mM and 69.7 mM"}, {"measurement": "Kd", "setting": "BasC K154A mutant [1]; mean of n=3, read-out: Apparent Kd K154A, mean", "value": 61.4, "unit": "mM"}, {"measurement": "Vmax", "setting": "BasC K154A mutant [2]", "value": "0.32 ± 0.04 pmols L-alanine µg protein^−1 s^−1"}, {"measurement": "reduction of Vmax vs. wild-type", "setting": "BasC K154A mutant [2]", "value": "~ 10 fold"}, {"measurement": "reduction of extracellular apparent affinity vs. wild-type", "setting": "BasC K154A mutant [2]", "value": "~ 10 fold"}, {"measurement": "V/[L-Ala]", "setting": "BasC K154A mutant [2]; extracellular side, L-alanine 100 μM", "value": "0.0007 and 0.0010 and 0.0009"}, {"measurement": "V/[L-Ala]", "setting": "BasC K154A mutant [2]; extracellular side, L-alanine 500 μM", "value": "0.000458 and 0.000473 and 0.0005"}, {"measurement": "Km", "setting": "BasC K154A mutant [2]; extracellular side, 5 µM Nb74, read-out: Km (o)", "value": "474 ± 42", "unit": "µM"}, {"measurement": "Km", "setting": "BasC K154A mutant [2]; intracellular side, 5 µM Nb74, read-out: Km (i)", "value": "2040 ± 370", "unit": "µM"}]}
